Measured values as given in paper PMC5844530, “Fosmetpantotenate (RE-024), a phosphopantothenate replacement therapy for pantothenate kinase-associated neurodegeneration: Mechanism of action and efficacy in nonclinical models” (PLoS ONE, 2018).
Several values for one entry are separate records, joined by “and”; a condition that tells them apart may be missing. Identical values can stand only once.

Assays:
[1] = Metabolic stability in human whole blood; format: in vitro ADME; conditions: for Percentage Remaining: human whole blood, replicates 1 and 2, listed as Fosmetpantotenate Total
Experimental: (§1) Metabolic stability in blood and liver microsomes: Fosmetpantotenate or its individual diastereomers (5 μM, n = 2, 37°C) were incubated in mouse, rat, cynomolgus monkey, and human whole blood. Samples (50 μL) were taken at 0, 5, 15, 30, and 60 min. Incubations of fosmetpantotenate or its individual diastereomers (1 μM, n = 2, 37°C) in pooled liver microsomes (0.25 mg protein/mL in 0.1 M phosphate buffer pH 7.4) were initiated with the addition of nicotinamide adenine dinucleotide phosphate (NADPH; 1 mM). Aliquots (100 μL) were obtained at 0, 5, 10, 20, and 40 min and added to 150 μL of 0.1% formic acid in acetonitrile-containing carbamazepine (0.5 μM) as an analytical internal standard, centrifuged, and the supernatants analyzed by LC-MS/MS.
Bioanalysis for determinations of analyte stability: Samples were analyzed using a benchtop tandem quadrupole detector (TQD) mass spectrometer (Waters Ltd, Centennial Park, Hertfordshire). […] Suitable retention and peak shape with separation of the 2 diastereomers were obtained. The chromatography column was a Phenomenex-Kinetex XB C18 (2.10 x 50 mm; 2.6 μm), with a 0.7 mL/min flow rate and a 2 μL injection volume. […] The gradient was initiated with 20% B and increased linearly, reaching 40% B at 0.6 min, followed by 50% B at 0.8 min and by 95% B at 0.9 min. Conditions were kept isocratic through 1.2 min, returned to starting conditions (20% B) at 1.25 min, and maintained at 20% B through 1.5 min before the next injection. Since fosmetpantotenate is a mixture of diastereomers which are resolved chromatographically, the fosmetpantotenate MRM area corresponds to the sum of the MRM areas of the individual diastereomers.
The percent of compound remaining was determined from the MRM area response in each sample relative to that in the T = 0 samples (normalized for internal standard). Natural log plots of the percent compound remaining over time were used to determine the t½ of compound disappearance using the relationship t½ = -0.693/λ, where λ is the slope of the natural logarithm of the percent compound remaining vs time curve.

[2] = Metabolic stability in mouse liver microsomes; format: in vitro ADME; conditions: pooled liver microsomes
Experimental: as §1
Bioanalysis for determinations of analyte stability: Samples were analyzed using a benchtop tandem quadrupole detector (TQD) mass spectrometer (Waters Ltd, Centennial Park, Hertfordshire). […] Suitable retention and peak shape with separation of the 2 diastereomers were obtained. The chromatography column was a Phenomenex-Kinetex XB C18 (2.10 x 50 mm; 2.6 μm), with a 0.7 mL/min flow rate and a 2 μL injection volume. […]
The percent of compound remaining was determined from the MRM area response in each sample relative to that in the T = 0 samples (normalized for internal standard). […]

liver and brain CoA = test: Labeled experiments: incorporation of isotopically labeled fosmetpantotenate into CoA; format: in vivo, mouse; conditions: 125 μg intrastriatally; 6 h
Excerpt: Fosmetpantotenate was labeled with three ^13C and one ^15N in the PA moiety and with one ^18O in the phosphate moiety, as indicated in Fig 10. The premise of this experiment is the following: if PPA incorporated into CoA originates from fosmetpantotenate metabolism, then all isotope labels (including the ^18O) will be retained in the CoA molecule, resulting in an increase in molecular weight of 6 atomic mass units (AMU) with respect to unlabeled CoA ([M+H]^+ = 774.3 vs 768.3, respectively; Fig 10, Path A). However, if fosmetpantotenate is hydrolyzed to PA, and PA is then re-phosphorylated by WT PanK to yield PPA, or if the ^18O is exchanged with water, then the ^18O would be lost in the process, resulting in a CoA molecule with a 4-AMU increase in molecular weight over unlabeled CoA ([M+H]^+ = 772.3 vs 768.3, respectively, […], Path B). CoA derived from endogenous PA/PPA will have the unchanged molecular weight ([M+H]^+ = 768.3).
Animal phase: C57BL6N mice, 8-week old and 19 to 21 g obtained from Charles River (Como, Italy) were used in these studies. One group of mice (N = 3 per time point) received a single oral dose of 500 mg/kg isotopically labeled fosmetpantotenate dissolved in 20% hydroxypropyl-β-cyclodextrin. Another set of mice (N = 8 per time point) received a direct administration of isotopically labeled fosmetpantotenate at 125 μg (25 mg/mL of aCSF containing 147 mM NaCl, 3.0 mM KCl, 1.2 mM CaCl2, and 1.2 mM MgCl2) via cannula into striatum. Brain, liver, and blood samples were collected at pre-dose, 6 h, 12 h (brain only), and 24 h, and were snap frozen in liquid nitrogen.
Two additional groups of mice (N = 6 per time point for each group) received 3 daily doses (8 am, 2 pm, and 8 pm to mimic an anticipated human dosing schedule) of isotopically labeled fosmetpantotenate at either 1.25 μg (0.625 mg/mL aCSF) or 12.5 μg (6.25 mg/mL aCSF) via ICV infusion cannula (2 μL), for up to 10 consecutive days. Brain (striatum) samples were collected at pre-dose, and at 12 h following the third dose on days 1, 3, 7, and 10, and were snap frozen in liquid nitrogen.
Sample processing: Brain (striatum) and liver tissues were homogenized in a Precellys homogenizer (Bertin technologies, Montigny-le-Bretonneux, France) with 3 volumes of water for each volume of tissue (1:4 dilution). Protein was precipitated by adding 500 μL methanol to 100 μL of homogenate (1:6 dilution), mixed well, and centrifuged. Blood cells (1 volume) were treated with 1:8 v:v water:methanol (1:10 dilution), mixed, and centrifuged. The supernatants (200 μL for brain and blood cells and 100 μL for liver) were dried under nitrogen, reconstituted with 100 μL ammonium acetate 10 mM (pH ~5), and injected (10 μL) into the LC for high resolution mass spectrometry (HRMS) analyses.
CoA determination: An Acquity UPLC (Waters) system was used. Samples were chromatographed on a Luna C18 column (50 x 2.0 mm; 5 μm), with a 0.4 mL/min flow rate and a 10 μL injection volume. The mobile phases were (A), 10 mM ammonium acetate in water, pH 6.8 and (B) acetonitrile:2-propanol (9:1; v:v). The gradient was started with 2% (B) and was increased linearly to reach 20% (B) at 5 min; the gradient was ramped to reach 90% (B) at 5.1 min and kept isocratic at 90% (B) through 7.1 min.
The detector was a Waters QTOF Synapt mass spectrometer, with an electrospray ion source operating in the positive scanning mode acquiring in full scan mode (accuracy <5 ppm). The following exact masses were determined: 768.1230 for CoA, 772.1301 for CoA +4 AMU, and 774.1344 for CoA +6 AMU.
The CoA levels obtained by MS/MS analyses were corrected for ^18O isotopic incorporation. CoA levels were not adjusted for the 1% and 2% of ^12C and ^14N, respectively, in the labeled fosmetpantotenate. […]

Question: With COC(=O)CCNC(=O)[C@H](O)C(C)(C)COP(=O)(N[C@@H](C)C(=O)OC)Oc1ccccc1 (mixture of isomers) [Fosmetpantotenate] as the compound, how does the half-life at 5 μM ([1]; human blood, 5 μM, 37°C, 60 min) read?
Answer: 67 min

Question: What about the “Percentage Remaining” value ([1]; 5 min) of the same compound?
Answer: 103% and 90%

Question: What about the “Percentage Remaining” value ([1]; 15 min) of the same compound?
Answer: 114% and 99%

Question: What about the “Percentage Remaining” value ([1]; 30 min) of the same compound?
Answer: 77% and 71%

Question: And the “Percentage Remaining” value ([1]; 60 min)?
Answer: 56% and 55%

Question: What about the half-life at 1 μM ([2]; pH 7.4, 1 μM, NADPH) of the same compound?
Answer: 11 min

Question: What about the microsomal CLint at 1 μM ([2]; pH 7.4, read-out: intrinsic clearance) of the same compound?
Answer: 247 µL/min/mg

Question: And the “Brain CoA (%) +6 AMU” value (liver and brain CoA)?
Answer: 36.2%
